Laboratory results: patent publication US12157722B1, “Crystalline hydrochloride salts of N-ethyl-2-(5-fluoro-1H-indol-3-yl)-N-methylethan-1-amine” (Gilgamesh Pharmaceuticals, Inc., priority 2023, dated 2024)

Columns and labels:
[1] = Exposure of dry cake to humidity, solid form checked by XRPD; type: physicochemical; settings: for XRPD pattern, dry cake exposed to humidity: monofumarate solids exposed to humidity (90% RH/30° C.)
[2] = Dynamic Vapor Sorption (DVS); type: physicochemical; settings: 25° C., 75% RH
Method: Dynamic Vapor Sorption (DVS) was performed using a Q5000SA. The sample (5-15 mg) was loaded into a metallic quartz sample pan, suspended from a microbalance, and exposed to a humidified stream of nitrogen gas. Weight changes were relative to a matching empty reference pan opposite the sample, suspended from the microbalance. The sample was held for a minimum of 10 min at each level and only progressed to the next humidity level if there was <0.002% change in weight between measurements (interval: 5 s) or 45 min had elapsed (for 5-65% RH) or 2 h had elapsed (for 80 and 95% RH). The following programs were used: • 1—Equilibration at 50% RH • 2—50% to 5%. (50%, 35%, 20%, and 5%) • 3—5% to 95%(5%, 20%, 35%, 50%, 65%, 80%, and 95%) • 4—95% to 5%(95%, 80%, 65%, 50%, 35%, 20%, and 5%) • 5—5% to 50% (5%, 20%, 35%, and 50%) • 1—Equilibration at 50% RH • 2—50% to 2%. (50%, 40%, 30%, 20%, 10%, and 2%) • 3—2% to 75%(2%, 10%, 20%, 30%, 40%, 50%, 60%, 70% and 75%) • 4—75% to 2%(75%, 70%, 60%, 50%, 40%, 30%, 20%, 10% and 2%) • 5—2% to 50% (2%, 10%, 20%, 30%, 40% and 50%) • 1—Equilibration at 50% RH • 2—50% to 2%.(50%, 40%, 30%, 20%, 10%, and 2%) • 3—2% to 65% (2%, 10%, 20%, 30%, 40%, 50%, 60% and 65%) • 4—65% to 2% (65%, 60%, 50%, 40%, 30%, 20%, 10% and 2%) • 5—2% to 50% (2%, 10%, 20%, 30%, 40% and 50%). […]

SMILES	XRPD pattern, dry cake exposed to humidity [1]	further results
CCN(C)CCc1c[nH]c2ccc(F)cc12.CCN(C)CCc1c[nH]c2ccc(F)cc12.O=C(O)/C=C/C(=O)O [hemifumarate Form 1, N-ethyl-2-(5-fluoro-1H-indol-3-yl)-N-methylethan-1-amine hemifumarate Form 1]		XRPD pattern, Humid ([1]; hemifumarate dry cake from EtOH:MTBE (1:1 vol.) exposed to humidity): deliquescent
CCN(C)CCc1c[nH]c2ccc(F)cc12.Cl [hydrochloride Form 1, N-ethyl-2-(5-fluoro-1H-indol-3-yl)-N-methylethan-1-amine hydrochloride Form 1]		DVS isotherm, equilibration behaviour [2]: did not reach equilibrium at 75% RH
CCN(C)CCc1c[nH]c2ccc(F)cc12.O=C(O)/C=C/C(=O)O [monofumarate Form 1, N-ethyl-2-(5-fluoro-1H-indol-3-yl)-N-methylethan-1-amine monofumarate Form 1]	Form 1	
CCN(C)CCc1c[nH]c2ccc(F)cc12.O=C(O)/C=C/C(=O)O [monofumarate Form 2, N-ethyl-2-(5-fluoro-1H-indol-3-yl)-N-methylethan-1-amine monofumarate Form 2]	slowly converted to Form 1	
